Where “and” joins values, the source holds several entries; their conditions need not be identical. Equal entries are not always repeated.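 All cell lines were grown in 96-well plates and treated with compound for 48 hours. Abbreviation: GI50, concentration required for 50% inhibition of growth. TGI is the concentration that stops growth completely.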
Key:
Test in all cases: DTP human tumour cell line panel, 48 h
EKVX NSCLC = system: EKVX NSCLC
IGROV1 ovarian = system: IGROV1 ovarian
LOX IMVI melanoma = system: LOX IMVI melanoma
MCF7 breast = system: MCF7 breast
NCI-H460 lung = system: NCI-H460 lung
NCI/ADR-RES ovarian = system: NCI/ADR-RES ovarian
OVCAR-4 ovarian = system: OVCAR-4 ovarian
SF-539 CNS = system: SF-539 CNS
SNB-19 CNS = system: SNB-19 CNS
SNB-75 CNS = system: SNB-75 CNS
SW-620 colon = system: SW-620 colon
T-47D breast = system: T-47D breast
TK-10 renal = system: TK-10 renal
UACC-62 melanoma = system: UACC-62 melanoma
PC-3 prostate = system: PC-3 prostate

SMILES | TGI (EKVX NSCLC) [µM] | TGI (IGROV1 ovarian) | TGI (LOX IMVI melanoma) | TGI (MCF7 breast) [µM] | TGI (NCI-H460 lung) [µM] | TGI (NCI/ADR-RES ovarian) [µM] | TGI (OVCAR-4 ovarian) | TGI (SF-539 CNS) [µM] | TGI (SNB-19 CNS) [µM] | TGI (SNB-75 CNS) [µM] | TGI (SW-620 colon) | TGI (T-47D breast) [µM] | TGI (TK-10 renal) | TGI (UACC-62 melanoma) | TGI (PC-3 prostate) [µM] | GI50 (SNB-75 CNS) [µM] | GI50 (TK-10 renal) [µM]
CC(=O)c1[nH]c(Nc2ccc(C)cc2)c(C(=S)Nc2ccccc2)c1N | 96.7 | 35.7 µM | 33.3 µM | 30.6 | 31.9 | 89.4 | 54.9 µM | > 100 | 42.9 | 50.3 | 96.9 µM | 37.2 | 35.5 µM | 31.7 µM |  |  | 
COc1ccc(C2=C(Cl)c3cc(OC)c(OC)cc3C2)cc1OC | > 100 | > 100 µM |  |  |  |  | > 100 µM | > 100 | > 100 | > 100 | > 100 µM |  |  | > 100 µM |  |  | 
CNc1ccc([N+](=O)[O-])c2c(NCCCN(C)C)ccnc12 | > 100 | > 100 µM | > 100 µM |  | > 100 |  | > 100 µM | > 100 | > 100 |  | > 100 µM |  | > 100 µM |  |  |  | 
S=C(N/N=C(\C(=N/NC(=S)N1CCCCC1)c1ccccn1)c1ccccn1)N1CCCCC1 | > 100 | > 100 µM | > 100 µM | > 100 | > 100 | > 100 |  | > 100 | > 100 | > 100 | > 100 µM |  | > 100 µM | > 100 µM | > 100 |  | 
O=C(NN1C(=O)C(Cl)C1c1ccccc1Cl)c1ccccc1O (stereo not drawn) |  |  | > 100 µM |  | > 100 |  | > 100 µM | > 100 | > 100 | > 100 |  |  | > 100 µM | > 100 µM |  |  | 
O=c1[nH]c(=O)n(COCc2ccccc2)c2ccccc12 | > 100 | > 100 µM | > 100 µM | > 100 | > 100 | 92.7 | > 100 µM | > 100 | > 100 | 54.9 | > 100 µM |  | > 100 µM | > 100 µM | > 100 |  | 
COc1cc2c(c(OC)c1OC)-c1ccc(SC)c(=O)cc1[C@@H](NC(=O)c1ccc([N+](=O)[O-])cc1)CC2 | 25 | 25 µM and > 100 µM | 25 µM and > 100 µM |  | 0.0108 |  | 25 µM and > 100 µM |  | 23.2 |  | 25 µM and > 100 µM |  | 25 µM and > 100 µM | 25 µM and > 100 µM |  | < 0.0025 | 0.0344
N#Cc1cc([N+](=O)[O-])ccc1NC(=O)C(=O)C(C(=O)c1ccc2ccccc2c1)C1OCc2ccccc21 (stereo not drawn) | 37.4 | 61.6 µM | 29.5 µM |  | 20.5 |  | > 55.2 µM | 5.83 | 21.1 | 16.1 | 41.1 µM |  | 45.8 µM | 36.4 µM |  |  | 
O=C1CC(C(COCc2ccccc2)OCc2ccccc2)CC(=O)N1 (stereo not drawn) | > 100 | > 100 µM | > 100 µM | > 100 |  |  |  | > 100 | > 100 |  | > 100 µM | > 100 | > 100 µM |  | > 100 |  | 
CC(C)C1=C(Cc2ccccc2)C(=O)O/C1=C\c1ccc(O)c(Cl)c1 | 30.3 | 30.5 µM | 32.3 µM | 30.3 | 31.1 |  | 27.8 µM | 33.2 | 33.7 | 30.6 | 34.9 µM |  | 31.8 µM | 28 µM | 31.7 |  | 
COc1cc(C(O)C(=O)c2cnc3cc([N+](=O)[O-])ccc3n2)ccc1O (stereo not drawn) | > 100 | > 100 µM | > 100 µM |  | > 100 |  | > 100 µM | > 100 | > 100 | > 100 | > 100 µM |  | > 100 µM | > 100 µM |  |  | 
C[N+](C)(C)CC(CC(=O)[O-])C1CC1 (stereo not drawn) | > 100 | > 100 µM | > 100 µM |  | > 100 |  | > 100 µM | > 100 | > 100 | > 100 | > 100 µM |  | > 100 µM | > 100 µM |  |  | 
Cc1c2cccc-2c(OCCOC(=O)n2ccnc2)cc2c1[nH]c1ccccc12 | 4.18 | 6.23 µM | 3.86 µM | 19.5 | 18.1 |  | 5.63 µM |  | 5.97 | 3.02 | 14.4 µM | 8.15 | 14.4 µM | 6.63 µM | 3.48 |  | 
O=C(CC(c1ccccc1)C(C(=O)c1ccncc1)C(CC(=O)c1ccncc1)c1ccccc1)c1ccncc1 (stereo not drawn) | > 100 | > 100 µM | > 100 µM |  | > 100 | > 100 |  |  | > 100 | > 100 | > 100 µM | > 100 | > 100 µM | > 100 µM | > 100 |  | 
O=C1CCC2(c3ccc(Cl)cc3)Nc3ncncc3N12 (stereo not drawn) | > 10 | > 10 µM | > 10 µM | > 10 | > 10 | > 10 | > 10 µM | > 10 | > 10 | > 10 | > 10 µM |  | > 10 µM | > 10 µM | > 10 |  | 
Cc1ccc(NC(=O)/C(=N/NC(=O)C[N+](C)(C)C)c2nc3ccccc3[nH]c2=O)cc1 | > 100 | > 100 µM | > 100 µM |  | > 100 |  | > 100 µM | > 100 | > 100 | > 100 | 33.8 µM |  | > 100 µM | > 100 µM |  |  | 
Cn1cnc(SC2=C3C(=O)C=C4S[C@H]5C[C@]42c2c(c(O)c4c6c2=[N+]3CCC=6C=N4)N5)c1CC(N)C(=O)O (stereo partly drawn) | 32.9 | 30.2 µM | 26.1 µM |  | > 100 |  | 31.1 µM | 31.8 | 32 | 34.1 | 18.5 µM |  | > 100 µM | 29.2 µM |  |  | 
C[N+](C)(C)CC(=O)N/N=C(/Cc1nc2ccc([N+](=O)[O-])cc2[nH]c1=O)C(=O)Nc1cc(C(F)(F)F)ccc1Cl | > 100 | > 100 µM |  |  | > 100 |  | > 100 µM | > 100 | > 100 |  | > 100 µM |  | > 100 µM | > 100 µM |  |  | 

— PubChem BioAssay (NCI)
